{"source": "patent US11534457B2", "about": "“Use of dextran sulfate” (priority 2017, dated 2022)", "system": "severe traumatic brain injury (sTBI)", "experiment": "sTBI in rats, brain gene expression arrays and pathway analysis (Example 9)", "format": "in vivo, Male Wistar rats", "method": "The experimental protocol used in this study was approved by the Ethical Committee of the Catholic University of Rome, according to international standards and guidelines for animal care. Male Wistar rats of 300-350 g body weight were fed with standard laboratory diet and water ad libitum in a controlled environment. As the anesthetic mixture, the animals received 35 mg/kg b.w. ketamine and 0.25 mg/kg body weight midazolam by i.p. injection. Severe traumatic brain injury (sTBI) was induced by dropping a 450 g weight from 2 m height on to the rat head that had been protected by a metal disk previously fixed on the skull, according to the “weight drop” impact acceleration model (Marmarou et al., A new model of diffuse brain injury in rats. Part I: Pathophysiology and biomechanics. J Neurosurg. 1994; 80: 291-300). […] At the end of each period of treatment, rats were anesthetized again and then immediately sacrificed.\nLMW-DS (Tikomed AB) was provided at a stock concentration of 20 mg/ml and was kept in a temperature-monitored refrigerator at 4° C. LMW-DS aliquots were diluted to the appropriate dosing concentration in sterile saline prior to delivery of a single subcutaneous injection.\nThree doses of LMW-DS were administered subcutaneously 30 minutes post-TBI. The animals were sacrificed at 2 days post-TBI. The animals were divided into the following subgroups:\nThree doses of LMW-DS were administered subcutaneously 30 minutes post-TBI. The animals were sacrificed at 7 days post-TBI. The animals were divided into the following subgroups:\nAn in vivo craniectomy was performed on all animals during anesthesia. After carefully removing the rat's skull, the brain was exposed and removed with a surgical spatula and quickly dropped in RNALater and preserved at 4° C. for further processing.\nRNA extraction and array processing was carried out by SourceBioscience. The arrays used were the Agilent Rat expression arrays.\nStatistical analysis was carried out using the Metaboanalyst software package. Gene expression changes of 10% with a p<0.05 were regarded as significant.\nPathway analysis of the differentially regulated genes was carried out using the Ingenuity pathway analysis package. The analysis was performed with special reference to pathways and molecular processes and diseases associated with neurodegenerative disease, including dementia, Alzheimer's disease, ALS, TBI and stroke, and with scarring and fibrosis, including glaucoma and normal pressure hydrocephalus (NPH) after subarachnoid haemorrhage.", "key": {"[1]": {"conditions": "TBI + 1 mg/kg LMW-DS, 2 days after TBI"}, "[2]": {"conditions": "TBI + 1 mg/kg LMW-DS, 7 days after TBI"}, "[3]": {"conditions": "TBI + 1 mg/kg LMW-DS, 7 days after TBI, relative to control"}, "[4]": {"conditions": "TBI + 1 mg/kg LMW-DS, after 7 days, TBI: Activated"}, "[5]": {"conditions": "TBI + 1 mg/kg LMW-DS, after 7 days, TBI: Inhibited"}, "[6]": {"conditions": "TBI + 5 mg/kg LMW-DS, 2 days after TBI"}}, "data": [{"substance": "low molecular weight dextran sulfate [LMW-DS]", "values": [{"measurement": "Diseases or functions annotation: Migration of cells", "setting": "[1]", "result": "Activated"}, {"measurement": "Diseases or functions annotation: Necrosis", "setting": "[1]", "result": "Inhibited"}, {"measurement": "Diseases or functions annotation: Non-hematologic malignant neoplasm", "setting": "[1]", "result": "Inhibited"}, {"measurement": "Diseases or functions annotation: Pelvic tumor", "setting": "[1]", "result": "Inhibited"}, {"measurement": "Diseases or functions annotation: Proliferation of blood cells", "setting": "[1]", "result": "Inhibited"}, {"measurement": "Diseases or functions annotation: Proliferation of lymphatic system cells", "setting": "[1]", "result": "Inhibited"}, {"measurement": "Diseases or functions annotation: Proliferation of lymphocytes", "setting": "[1]", "result": "Inhibited"}, {"measurement": "Diseases or functions annotation: Quantity of blood cells", "setting": "[1]", "result": "Inhibited"}, {"measurement": "Diseases or functions annotation: Quantity of bone", "setting": "[1]", "result": "Inhibited"}, {"measurement": "Diseases or functions annotation: Quantity of cells", "setting": "[1]", "result": "Inhibited"}, {"measurement": "Diseases or functions annotation: Quantity of connective tissue cells", "setting": "[1]", "result": "Activated"}, {"measurement": "Diseases or functions annotation: Quantity of leukocytes", "setting": "[1]", "result": "Inhibited"}, {"measurement": "Diseases or functions annotation: Quantity of lymphatic system cells", "setting": "[1]", "result": "Inhibited"}, {"measurement": "Diseases or functions annotation: Quantity of phagocytes", "setting": "[1]", "result": "Inhibited"}, {"measurement": "Diseases or functions annotation: Rheumatic Disease", "setting": "[1]", "result": "Inhibited"}, {"measurement": "Diseases or functions annotation: Solid tumor", "setting": "[1]", "result": "Inhibited"}, {"measurement": "Diseases or functions annotation: Survival of organism", "setting": "[1]", "result": "Inhibited"}, {"measurement": "Diseases or functions annotation: Synthesis of hormone", "setting": "[1]", "result": "Activated"}, {"measurement": "Diseases or functions annotation: Thrombus", "setting": "[1]", "result": "Activated"}, {"measurement": "Diseases or functions annotation: Transport of molecule", "setting": "[1]", "result": "Activated"}, {"measurement": "Ingenuity canonical pathway: Adrenomedullin signaling pathway", "setting": "[2]", "result": "Inhibited"}, {"measurement": "Ingenuity canonical pathway: ERK5 Signaling", "setting": "[2]", "result": "Inhibited"}, {"measurement": "Ingenuity canonical pathway: Endothelin-1 Signaling", "setting": "[2]", "result": "Activated"}, {"measurement": "Ingenuity canonical pathway: G Beta Gamma Signaling", "setting": "[2]", "result": "Activated"}, {"measurement": "Ingenuity canonical pathway: NF-κB Signaling", "setting": "[2]", "result": "Inhibited"}, {"measurement": "Ingenuity canonical pathway: Opioid Signaling Pathway", "setting": "[2]", "result": "Inhibited"}, {"measurement": "Ingenuity canonical pathway: Role of NFAT in Regulation of the Immune Response", "setting": "[2]", "result": "Activated"}, {"measurement": "Ingenuity canonical pathway: Synaptic Long Term Depression", "setting": "[2]", "result": "Activated"}, {"measurement": "z score: Abdominal cancer", "setting": "[2]", "result": "−2.426"}, {"measurement": "z score: Abdominal carcinoma", "setting": "[2]", "result": "−1.987"}, {"measurement": "z score: Cell movement", "setting": "[2]", "result": "−1.01"}, {"measurement": "z score: Cell viability", "setting": "[2]", "result": "−1.584"}, {"measurement": "z score: Concentration of hormone", "setting": "[2]", "result": "−0.32"}, {"measurement": "z score: Development of connective tissue cells", "setting": "[2]", "result": "−0.005"}, {"measurement": "z score: Development of malignant tumor", "setting": "[2]", "result": "−1.326"}, {"measurement": "z score: Developmental process of synapse", "setting": "[2]", "result": "−0.152"}, {"measurement": "z score: Differentiation of bone cells", "setting": "[2]", "result": "−1.799"}, {"measurement": "z score: Differentiation of connective tissue cells", "setting": "[2]", "result": "−0.349"}, {"measurement": "z score: Digestive organ tumor", "setting": "[2]", "result": "−1.396"}, {"measurement": "z score: Digestive system cancer", "setting": "[2]", "result": "−1.96"}, {"measurement": "z score: Epithelial neoplasm", "setting": "[2]", "result": "−1.313"}, {"measurement": "z score: Formation of plasma membrane", "setting": "[2]", "result": "−0.152"}, {"measurement": "z score: Frequency of tumor", "setting": "[2]", "result": "−2.128"}, {"measurement": "z score: Gastrointestinal tumor", "setting": "[2]", "result": "−1.029"}, {"measurement": "z score: Hematologic cancer", "setting": "[2]", "result": "−1.067"}, {"measurement": "z score: Hematopoietic neoplasm", "setting": "[2]", "result": "−0.686"}, {"measurement": "z score: Incidence of tumor", "setting": "[2]", "result": "−1.614"}, {"measurement": "z score: Large intestine neoplasm", "setting": "[2]", "result": "−1.192"}, {"measurement": "z score: Liver tumor", "setting": "[2]", "result": "−1.91"}, {"measurement": "z score: Malignant genitourinary solid tumor", "setting": "[2]", "result": "−0.537"}, {"measurement": "z score: Metabolism of hormone", "setting": "[2]", "result": "−1.066"}, {"measurement": "z score: Pelvic tumor", "setting": "[2]", "result": "−1.214"}, {"measurement": "z score: Quantity of Ca^2+", "setting": "[2]", "result": "−0.11"}, {"measurement": "z score: Quantity of carbohydrate", "setting": "[2]", "result": 0.49}, {"measurement": "z score: Quantity of metal", "setting": "[2]", "result": 0.415}, {"measurement": "z score: Synthesis of lipid", "setting": "[2]", "result": 0.033}, {"measurement": "z score: Tumorigenesis of epithelial neoplasm", "setting": "[2]", "result": "−1.981"}, {"measurement": "z score: Tumorigenesis of tissue", "setting": "[2]", "result": "−0.998"}, {"measurement": "z score: Vaso-occlusion", "setting": "[2]", "result": 1.264}, {"measurement": "z score: Weight gain", "setting": "[2]", "result": 0.625}, {"measurement": "Ingenuity canonical pathway Adrenomedullin signaling pathway, z score", "setting": "[3]", "result": "−1"}, {"measurement": "Ingenuity canonical pathway ERK5 Signaling, z score", "setting": "[3]", "result": "−2"}, {"measurement": "Ingenuity canonical pathway Endothelin-1 Signaling, z score", "setting": "[3]", "result": 1.342}, {"measurement": "Ingenuity canonical pathway G Beta Gamma Signaling, z score", "setting": "[3]", "result": 1}, {"measurement": "Ingenuity canonical pathway NF-κB Signaling, z score", "setting": "[3]", "result": "−0.447"}, {"measurement": "Ingenuity canonical pathway Opioid Signaling Pathway, z score", "setting": "[3]", "result": "−0.447"}, {"measurement": "Ingenuity canonical pathway Role of NFAT in Regulation of the Immune Response, z score", "setting": "[3]", "result": 0.816}, {"measurement": "Ingenuity canonical pathway Synaptic Long Term Depression, z score", "setting": "[3]", "result": 1.342}, {"measurement": "Ingenuity canonical pathway mTOR Signaling, z score", "setting": "[3]", "result": 1}, {"measurement": "Diseases or functions annotation: Development of malignant tumor", "setting": "[4]", "result": "Inhibited"}, {"measurement": "Diseases or functions annotation: Digestive organ tumor", "setting": "[4]", "result": "Inhibited"}, {"measurement": "Diseases or functions annotation: Frequency of tumor", "setting": "[4]", "result": "Inhibited"}, {"measurement": "Diseases or functions annotation: Gastrointestinal tumor", "setting": "[4]", "result": "Inhibited"}, {"measurement": "Diseases or functions annotation: Hematologic cancer", "setting": "[4]", "result": "Inhibited"}, {"measurement": "Diseases or functions annotation: Hematopoietic neoplasm", "setting": "[4]", "result": "Inhibited"}, {"measurement": "Diseases or functions annotation: Incidence of tumor", "setting": "[4]", "result": "Inhibited"}, {"measurement": "Diseases or functions annotation: Large intestine neoplasm", "setting": "[4]", "result": "Inhibited"}, {"measurement": "Diseases or functions annotation: Vaso-occlusion", "setting": "[4]", "result": "Activated"}, {"measurement": "Diseases or functions annotation: Abdominal cancer", "setting": "[5]", "result": "Inhibited"}, {"measurement": "Diseases or functions annotation: Abdominal carcinoma", "setting": "[5]", "result": "Inhibited"}, {"measurement": "Diseases or functions annotation: Cell movement", "setting": "[5]", "result": "Inhibited"}, {"measurement": "Diseases or functions annotation: Cell viability", "setting": "[5]", "result": "Inhibited"}, {"measurement": "Diseases or functions annotation: Concentration of hormone", "setting": "[5]", "result": "Inhibited"}, {"measurement": "Diseases or functions annotation: Development of connective tissue cells", "setting": "[5]", "result": "Inhibited"}, {"measurement": "Diseases or functions annotation: Developmental process of synapse", "setting": "[5]", "result": "Inhibited"}, {"measurement": "Diseases or functions annotation: Differentiation of bone cells", "setting": "[5]", "result": "Inhibited"}, {"measurement": "Diseases or functions annotation: Differentiation of connective tissue cells", "setting": "[5]", "result": "Inhibited"}, {"measurement": "Diseases or functions annotation: Digestive system cancer", "setting": "[5]", "result": "Inhibited"}, {"measurement": "Diseases or functions annotation: Epithelial neoplasm", "setting": "[5]", "result": "Inhibited"}, {"measurement": "Diseases or functions annotation: Formation of plasma membrane", "setting": "[5]", "result": "Inhibited"}, {"measurement": "Diseases or functions annotation: Liver tumor", "setting": "[5]", "result": "Inhibited"}, {"measurement": "Diseases or functions annotation: Malignant genitourinary solid tumor", "setting": "[5]", "result": "Inhibited"}, {"measurement": "Diseases or functions annotation: Metabolism of hormone", "setting": "[5]", "result": "Inhibited"}, {"measurement": "Diseases or functions annotation: Pelvic tumor", "setting": "[5]", "result": "Inhibited"}, {"measurement": "Diseases or functions annotation: Quantity of Ca^2+", "setting": "[5]", "result": "Inhibited"}, {"measurement": "Diseases or functions annotation: Quantity of carbohydrate", "setting": "[5]", "result": "Activated"}, {"measurement": "Diseases or functions annotation: Quantity of metal", "setting": "[5]", "result": "Activated"}, {"measurement": "Diseases or functions annotation: Synthesis of lipid", "setting": "[5]", "result": "Activated"}, {"measurement": "Diseases or functions annotation: Tumorigenesis of epithelial neoplasm", "setting": "[5]", "result": "Inhibited"}, {"measurement": "Diseases or functions annotation: Tumorigenesis of tissue", "setting": "[5]", "result": "Inhibited"}, {"measurement": "Diseases or functions annotation: Weight gain", "setting": "[5]", "result": "Activated"}, {"measurement": "Diseases or functions annotation: Abdominal cancer", "setting": "[6]", "result": "Inhibited"}, {"measurement": "Diseases or functions annotation: Abdominal carcinoma", "setting": "[6]", "result": "Inhibited"}, {"measurement": "Diseases or functions annotation: Abdominal neoplasm", "setting": "[6]", "result": "Inhibited"}]}]}
